Our source for the melting point values is a melting point compilation (Tetko et al.; mined from patent text by program, amines drawn as free bases though some values may be those of a salt).

Molecules are shown by their SMILES.

A word on the melting point: it is the temperature, or range, at which the solid turns liquid. The molecule `COC(=O)c1cn(-c2ccc(Oc3ccc(C)cc3O)cc2)nn1` displayed a melting point of 148 to 151 °C.
For `CCc1cccc2c1[nH]c1c2ccc2cc[nH]c21` the value was 256 to 258 °C.
`C=CCCCCCCCCC(=O)N[C@H]1CCCNC(=O)C1` had a melting point of 83 to 84 °C.
The molecule `N#Cc1cnc2c(sc3ccccc32)c1Cl` displayed a melting point of 305 to 308 °C.
To `Cc1cc2c(=O)[nH]c(CCl)nc2cc1Cl` belongs 287 to 290 °C; to `O=c1[nH]nc(-c2ccc(-n3ccnc3)cc2)c2cccnc12`, 359 to 361 °C.
To `CC1(C)CC(NC(=O)C(=O)NNC(=O)COc2ccc(C(=O)c3ccccc3)c(O)c2)CC(C)(C)N1` belongs 191 to 195 °C.
For `COc1ccccc1-c1ccc(C(=O)O)cc1C` the value was 160 to 162 °C; for `Cc1ccc2c(c1)N=C(N1CCN(C)CC1)c1c(sc3ccccc13)N2`, 184 to 186 °C; for `N#Cc1ccc(C(=O)Nc2cc(C(=O)NCc3ccccc3)ccn2)cc1`, 180 to 181 °C.
Turning to `OCCNCc1nnc2n1-c1ccc(Cl)cc1C(c1ccccc1)=NC2`, the melting point was in the range of 162 to 164 °C.
To `CN1Cc2cncn2-c2cccc(Br)c2C1=O` belongs 196 to 197 °C; to `O=c1[nH]c2c(Cl)cccc2c(=O)n1CCCN1CC=C(c2cccc(C(F)(F)F)c2)CC1`, 205 to 210 °C.
For `Cc1cc(=O)n2nc(-c3ccc(F)cc3)c(-c3ccncc3)c2[nH]1` the value was more than 280 °C; for `Cc1cc(C(=O)NCc2cccc([N+](=O)[O-])c2)c(OCC(=O)O)cc1F`, 177 to 179 °C; for `CCc1nc2ccccc2c(=O)n1CCCOc1ccc(SC(C)(C)C(=O)O)cc1`, 156 to 158 °C.
To `N#CCCNC(=O)c1cccc(-c2ccc3c(c2)N(c2cc(Cl)ccc2Cl)CC3)c1` belongs 189 to 190 °C; to `ClC(Cl)=CCOc1cc(Cl)c(OCC=Cc2ccccc2)c(Cl)c1`, 51.3 °C.
`COc1cc(C2=C(c3c[nH]c4cccnc34)C(=O)NC2=O)cc(OC)c1OC` showed a melting point of 274 to 275 °C.
Turning to `CC1(COc2ccc(CP(=O)(O)O)cc2)CCCCC1`, the melting point lay in the range of 170 to 172 °C.
For `CCCCC(=O)Nc1ccc(-c2cc3[nH]c(=O)[nH]c3nc2C)cc1` the value was more than 300 °C.
To `Cc1cc(C)nc(-n2ccnc2S(=O)Cc2ccccc2NC=O)c1` (stereo unspecified) belongs 160 to 162 °C.
For `ON=C(c1ccc(Cl)cc1)c1cccc2nc(N[C@@H]3CCc4ccccc43)ccc12` the value was 194 °C; for `CCc1nc(-c2ccc(OCCCN3C(=O)c4ccccc4C3=O)cc2)no1`, 135 to 136 °C; for `COCC(=O)NC(CC(=O)Nc1n[nH]c(=S)s1)c1ccccc1` (stereo unspecified), 241 to 242 °C.
On to `CC1CCCC(C(=O)c2[nH]c3cc(Cl)ccc3c2N)C1` (stereo unspecified), for which the melting point fell in the range of 140 to 142 °C.
For `Cc1cccc2c(=O)c(CS(C)(=O)=O)cn(C)c12` the value was 244 to 246 °C.
To `COC(=O)C1CC(=O)C(N=Nc2ccccc2)=C(O)C1` (stereo unspecified) belongs 117 to 118 °C; to `OC1CC(c2ccc(Oc3ccc(-c4ccc(Cl)cc4)cc3)cc2)Cc2ccccc21` (stereo unspecified), 156 °C.
To `Cc1nc2ccc(CN(CCO)c3ccc(C(=O)NCc4cccc(C#N)c4)cc3)cc2c(=O)[nH]1` belongs 110 to 112 °C; to `CCCCc1nc(C(F)(F)F)c(C(=O)OCC)[nH]1`, 51 to 53 °C; to `CCOC(=O)C1CSC(c2cc3cccc(NS(=O)(=O)c4cccs4)c3[nH]2)=N1` (stereo unspecified), 156 to 157 °C.
In turn, `CC(C)(C)C1C(O)=C(C2=NS(=O)(=O)c3c(NS(C)(=O)=O)cccc32)C(=O)N1Cc1ccc(F)cc1` (stereo unspecified) registered a melting point of 245 to 250 °C.
As to `O=S1(=O)NC=Nc2cc(C(F)(F)F)c(F)cc21`, the melting point was determined as 152 °C.
For `COC(=O)C1CSc2ccc(Cl)cc2C1=O` (stereo unspecified) the value was 64 to 67 °C; for `O=Cc1cn(CCCCl)c2ccc(Cl)cc12`, 107 to 108 °C.
